Values after ≈ are worked out from the molar mass of the structure shown.
Experiments:
Isolate 3 = experiment: Broth microdilution AST of drinking water isolate; type: cell-based, Staphylococcus capitis; design: key: R stands for resistant; settings: Isolate 3 from drinking water samples
Procedure: (§1) All tested samples were collected between June 2019 to November 2019 according to the guidelines from ISO 18593:2018 Microbiology of the food chain—Horizontal methods for surface sampling. Also, all of the samples were collected from the drinking fountains in government venues and university facilities, at ten different locations. As said, the surface of the outlet for the drinking fountains was tested by swabbing. In simple words, the surfaces of the drinking fountain's outlet were rubbed by a single use sterilize cotton swab and swished into the Lysogeny broth (LB) broth solution for 1 minute to prepare the sample solutions. Collected samples were kept at 4° C. during the transportation and enriched for 12-14 hours under 37° C. After the enrichment for bacteria, the sample suspensions were spread and streaked onto the LB agar for further bacterial isolation and AST uses. […] If an ID is needed, dilution plating can be used. Besides, antifungals and algal inhibitors can also be added into these samples to against and inhibit the growth of fungi, yeast, and algae.
(§2) All tested samples were collected from drinking fountains at ten different locations in various government venues and university facilities. Sample containers were kept sterile before use in sample collection; the collected samples were kept at 4° C. and analyzed within 24 hours of collection. Sample collection was conducted 3 times for each sampling site and the antimicrobial susceptibility of each sample was tested 3 times. (FIG. 5) Bacterial identification for the real samples was made through the use of Matrix-Assisted Laser Desorption Ionization Time of Flight Imaging Mass Spectrometry (MALDI-TOF IMS). 1 uL of the sample was pipetted onto an Indium tin oxide (ITO) coated glass slide and allowed to dry on a hotplate; the ITO slide with bacteria was then analyzed by MALDI-TOF IMS immediately following matrix application. (FIG. 6, Table 2)
(§3) The broth microdilution (BMD) testing of the samples was performed exactly the same according to the approved standard from CLSI and the procedures described in Nature Protocol. To perform the BMD test, both LB broth medium and the antibiotics were added into the 96-wells microplate. By using a two-fold dilution, a concentration gradient of the antibiotic is generated from 128 μg/mL to 0.125 μg/mL. The bacteria isolates identified inside the samples have been enriched under 37° C. for 8-12 hrs in order to achieve 5×10^6 CFU/mL before the test, 10 uL of the bacterial suspension was inoculated into the broth to achieve a final concentration of bacteria in 5×10^5 CFU/mL. The inoculated microplates were incubated at 37° C. for 16-20 hrs for further inspection. To assess the MIC values for the samples, the microplates were examined visually and the lowest concentration of the antibiotic which prevents visible growth of the bacteria was recorded as the MIC value of that sample. Meanwhile, Mueller Hinton broth was also used to perform the BMD for cross checking purpose; both of the AST results are consistence with the MIC quality control range recommended by CLSI.
(§4) Based on the findings in the present disclosure, multiple bacterial species have been recognized in the testing samples, including bacterial species that have the potential to form biofilm and colonize on the surface of the water dispenser (Table 2). Traditional broth microdilution AST was also performed to verify the AMR assessment results of the present sensor according to the approved standard from CLSI (FIGS. 27A and 27B, Table 4). […] As AMR microbes can exist in the environment all around us, close enough to come into contact with in daily life, they may pose a significant threat to the effective treatment of bacterial infections in the near future if no action is taken. […]

Isolate 8 = experiment: Broth microdilution AST of drinking water isolate; type: cell-based, Staphylococcus capitis; design: key: R stands for resistant; settings: Isolate 8 from drinking water samples
Procedure: as §1, §2, §3, §4

Isolate 4 = experiment: Broth microdilution AST of drinking water isolate; type: cell-based, Staphylococcus capitis; design: key: R stands for resistant; settings: Isolate 4 from drinking water samples
Procedure: as §1, §2, §3, §4

Isolate 1 = experiment: Broth microdilution AST of drinking water isolate; type: cell-based, Staphylococcus epidermidis; design: key: R stands for resistant; settings: Isolate 1 from drinking water samples
Procedure: as §1, §2
(§5) The broth microdilution (BMD) testing of the samples was performed exactly the same according to the approved standard from CLSI and the procedures described in Nature Protocol. To perform the BMD test, both LB broth medium and the antibiotics were added into the 96-wells microplate. By using a two-fold dilution, a concentration gradient of the antibiotic is generated from 128 μg/mL to 0.125 μg/mL. […] To assess the MIC values for the samples, the microplates were examined visually and the lowest concentration of the antibiotic which prevents visible growth of the bacteria was recorded as the MIC value of that sample. […]

Isolate 5 = experiment: Broth microdilution AST of drinking water isolate; type: cell-based, Staphylococcus epidermidis; design: key: R stands for resistant; settings: Isolate 5 from drinking water samples
Procedure: as §1, §2, §5

mixed bacteria sample = experiment: Broth microdilution AST of mixed bacteria sample; type: cell-based
Procedure: as §3
(§6) According to the AST results of the present disclosure, all those identified isolates (isolates 1-8) have shown susceptibility to Gentamicin where all of them are resistant to Ampicillin at the same time. […]

Isolate 7 = experiment: Broth microdilution AST of drinking water isolate; type: cell-based, Citrobacter youngae; design: key: R stands for resistant; settings: Isolate 7 from drinking water samples
Procedure: as §1, §2, §3, §4

Isolate 6 = experiment: Broth microdilution AST of drinking water isolate; type: cell-based, Citrobacter youngae; design: key: R stands for resistant; settings: Isolate 6 from drinking water samples
Procedure: as §1, §2, §3, §4

Isolate 2 = experiment: Broth microdilution AST of drinking water isolate; type: cell-based, Citrobacter youngae; design: key: R stands for resistant; settings: Isolate 2 from drinking water samples
Procedure: as §1, §2, §3, §4

E. coli [1] = settings: CLSI reference range; cited from earlier work
S. aureus [2] = settings: CLSI reference range; cited from earlier work
[3] = system: identified isolates (isolates 1-8); experiment: AST of the identified drinking water isolates, overall statement; type: cell-based; settings: all identified isolates 1-8
Procedure: as §3, §6

S. aureus [4] = experiment: AST with the present barcode cell sensor (PP microfluidic AST chip); type: cell-based, Staphylococcus aureus (ATCC 29213)
Procedure: (§7) To conduct an AST on the PP-based AST chip, bacteria were pre-activated inside an incubator for 15 minutes at 37° C. before use. At the beginning of a test, the bacteria are injected through Inlet 3; the injection of the bacteria was monitored under the fluorescence microscope (FIG. 24A). After the bacteria were inoculated into the cultivation chambers, antibiotic-doped media and media alone are injected into inlet 1 and inlet 2 at a rate of 1 μL/minute, respectively (FIG. 24B). The AST chip was then incubated on a thermostat platform at 37° C. for 2 hours. To assess AMR, the bacteria inside the culture chambers of the PP AST chip were flushed into the barcode cell sensor at a rate of 1 μL/minute. Gram staining agent was used during the flushing process to make bacteria inside the barcode cell sensor visible be captured by a cell phone camera. For comparison, AST was also performed using the traditional broth microdilution method as shown in FIG. 27; the MIC values of the bacteria were assessed as the lowest concentration of antibiotics with no visible growth of bacteria.

E. coli [5] = experiment: as above; type: cell-based, Escherichia coli (ATCC 25922)
Procedure: as §7, with “Gram staining agent was used during the flushing process to make bacteria inside the barcode cell sensor visible be captured by a cell phone camera.” left out
As said, the bacteria samples have been flushed into the “barcode” cell sensor after 2 hours incubation, the accumulated bacteria bars with different lengths will be formed. […] Thus, the MIC value of the samples can be assessed by looking at the point (in a specific concentration of a given antibiotic) of the bacterial growth with significant differences using the comparison of the log [slope] values. […]

E. coli [6] = experiment: Broth microdilution AST; type: cell-based, Escherichia coli (ATCC 25922)
Procedure: as §7, with “Gram staining agent was used during the flushing process to make bacteria inside the barcode cell sensor visible be captured by a cell phone camera.” left out
(§8) The broth microdilution (BMD) testing of the samples was performed exactly the same according to the approved standard from CLSI and the procedures described in Nature Protocol. […] To assess the MIC values for the samples, the microplates were examined visually and the lowest concentration of the antibiotic which prevents visible growth of the bacteria was recorded as the MIC value of that sample.

S. aureus [7] = experiment: Broth microdilution AST; type: cell-based, Staphylococcus aureus (ATCC 29213)
Procedure: as §7, with “Gram staining agent was used during the flushing process to make bacteria inside the barcode cell sensor visible be captured by a cell phone camera.” left out
as §8

With `CC1(C)S[C@@H]2[C@H](NC(=O)[C@H](N)c3ccccc3)C(=O)N2[C@H]1C(=O)O` [Ampicillin] the “AST result (MIC)” value (Isolate 3) was “R”, the “AST result (MIC)” value (Isolate 8) was “R” and the “AST result (MIC)” value (Isolate 4) was “R”. The “AST result (MIC)” value (Isolate 1) was “R”, the “AST result (MIC)” value (Isolate 5) was “R” and the “AST result in words” value (mixed bacteria sample; FIG. 27B) was “resistance”. The “AST result (MIC)” value (Isolate 7) was “R”, the “AST result (MIC)” value (Isolate 6) was “R” and the “AST result (MIC)” value (Isolate 2) was “R”. The MIC-CLSI (E. coli [1]) was 2 to 8 µg/mL, the MIC-CLSI (S. aureus [2]) was 0.5 to 2 µg/mL and the “AST result in words (susceptibility / resistance)” value [3] was “resistant”.
In the case of `CC[C@H]1OC(=O)[C@H](C)[C@@H](O[C@H]2C[C@@](C)(OC)[C@@H](O)[C@H](C)O2)[C@H](C)[C@@H](O[C@@H]2O[C@H](C)C[C@H](N(C)C)[C@H]2O)[C@](C)(O)C[C@@H](C)C(=O)[C@H](C)[C@@H](O)[C@]1(C)O` [Erythromycin, erythromycin], the MIC (S. aureus [4]; Staphylococcus aureus) is reported as 0.4 to 0.6 µg/mL (≈ 0.545 to 0.818 µM), the “MIC-"barcode" Chip” value (E. coli [5]) is reported as “Resistant” and the “MIC-Broth Microdilution” value (E. coli [6]) is reported as “Resistant”. The MIC-CLSI (E. coli [1]) was “Resistant”, the MIC-CLSI (S. aureus [2]) was 0.25 to 1 µg/mL and the MIC (S. aureus [7]; Staphylococcus aureus) was 0.25 to 1 µg/mL (≈ 0.341 to 1.36 µM).
With Gentamicin the “AST result (MIC)” value (Isolate 3) was 16 µg/mL, the “AST result (MIC)” value (Isolate 8) was 16 to 32 µg/mL and the “AST result (MIC)” value (Isolate 4) was 16 to 32 µg/mL. The “AST result (MIC)” value (Isolate 1) was 4 µg/mL, the “AST result (MIC)” value (Isolate 5) was 4 µg/mL and the “MIC-"barcode" Chip” value (S. aureus [4]) was 0.25 to 0.5 µg/mL. For the same molecule, the MIC value (mixed bacteria sample; FIG. 27A) was 4 to 8 µg/mL, the “MIC-Broth Microdilution” value (E. coli [6]) was 0.25 to 0.5 µg/mL and the “AST result (MIC)” value (Isolate 7) was 16 to 32 µg/mL. The “AST result (MIC)” value (Isolate 6) was 2 to 4 µg/mL, the “AST result (MIC)” value (Isolate 2) was 16 µg/mL and the MIC-CLSI (E. coli [1]) was 0.25 to 1 µg/mL. For the same molecule, the MIC-CLSI (S. aureus [2]) was 0.12 to 1 µg/mL, the “AST result in words (susceptibility / resistance)” value [3] was “susceptibility” and the “MIC-Broth Microdilution” value (S. aureus [7]) was 0.25 to 0.5 µg/mL.

From patent US20240240126A1, “Microfluidic Barcode-Like Cell Sensor For Microscope-Free Quantitative Detection Of Small Amount Of Cells” (Hong Kong Baptist University, priority 2021, published 2024)
